Assay results as given in US20230092890A1, “1, 3, 4-Oxadiazole derivative compounds as histone deacetylase 6 inhibitor, and the pharmaceutical composition comprising the same” (Chong Kun Dang Pharmaceutical Corp., priority 2019, published 2023).
Like-named read-outs stand apart in the source and are kept apart here.

Legend:
HDAC6 human recombinant = biological target: T1, HDAC6 human recombinant (Homo sapiens, UniProt Q9UBN7); assay: HDAC enzyme activity inhibition (in vitro), HDAC6 assay; type: biochemical
T1 construct: purchased Calbiochem 382180
T1 sequence (Q9UBN7 1-1215): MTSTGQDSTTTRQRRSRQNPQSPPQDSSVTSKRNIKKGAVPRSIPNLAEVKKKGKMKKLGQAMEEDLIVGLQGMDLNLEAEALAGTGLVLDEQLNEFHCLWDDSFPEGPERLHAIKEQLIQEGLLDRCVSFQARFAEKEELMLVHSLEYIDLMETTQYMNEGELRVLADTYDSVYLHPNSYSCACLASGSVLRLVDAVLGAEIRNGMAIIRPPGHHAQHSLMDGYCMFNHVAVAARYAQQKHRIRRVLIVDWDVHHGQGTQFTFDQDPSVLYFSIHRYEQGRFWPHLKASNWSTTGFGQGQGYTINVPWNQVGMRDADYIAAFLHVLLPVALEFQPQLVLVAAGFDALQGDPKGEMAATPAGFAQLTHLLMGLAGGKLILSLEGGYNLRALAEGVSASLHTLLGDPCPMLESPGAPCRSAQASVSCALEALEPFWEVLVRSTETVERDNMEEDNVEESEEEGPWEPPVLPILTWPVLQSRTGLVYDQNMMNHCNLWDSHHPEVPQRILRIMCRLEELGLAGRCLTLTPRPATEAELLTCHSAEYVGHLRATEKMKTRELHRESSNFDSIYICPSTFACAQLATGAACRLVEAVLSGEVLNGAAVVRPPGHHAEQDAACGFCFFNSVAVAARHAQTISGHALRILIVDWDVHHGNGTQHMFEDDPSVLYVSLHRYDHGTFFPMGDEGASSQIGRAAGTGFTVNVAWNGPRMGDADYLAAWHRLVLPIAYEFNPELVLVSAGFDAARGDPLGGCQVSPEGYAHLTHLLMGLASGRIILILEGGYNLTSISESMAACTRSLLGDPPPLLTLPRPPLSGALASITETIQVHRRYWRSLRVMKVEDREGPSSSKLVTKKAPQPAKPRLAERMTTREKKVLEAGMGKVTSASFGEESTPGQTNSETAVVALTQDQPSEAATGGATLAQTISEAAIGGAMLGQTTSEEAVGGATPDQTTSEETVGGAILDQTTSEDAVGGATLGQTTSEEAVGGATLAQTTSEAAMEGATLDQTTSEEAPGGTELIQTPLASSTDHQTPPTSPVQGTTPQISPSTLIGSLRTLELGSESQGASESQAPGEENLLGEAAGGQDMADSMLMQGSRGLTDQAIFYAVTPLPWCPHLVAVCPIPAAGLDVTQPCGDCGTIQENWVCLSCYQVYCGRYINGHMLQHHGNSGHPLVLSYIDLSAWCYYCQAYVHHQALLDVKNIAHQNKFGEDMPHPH
Summary of the method: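 HDAC6 human recombinant enzyme with fluorimetric substrate; […]. Reaction 60 min at 37° C, then developer 30 min at 37° C; fluorescence read at Ex 390/Em 460.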

HDAC1 = biological target: T2, HDAC1 (Homo sapiens, UniProt Q13547); assay: HDAC enzyme activity inhibition (in vitro), HDAC1 Fluorimetric Drug Discovery Assay Kit; type: biochemical
T2 construct: purchased Enzolifesciences BML-AK511
Summary of the method: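 HDAC1 was tested at 100, 1000 and 10000 nM and recombinant human HDAC6 at 0.1, 1, 10, 100 and 1000 nM. Enzyme reactions ran 60 min at 37° C, then developer was added for 30 min at 37° C, and fluorescence (Ex 390, Em 460) was read.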

[1] = samples at 0.1, 1, 10, 100 and 1000 nM, 37° C. 60 minutes, fluorescence Ex 390, Em 460, read-out: HDAC6 IC50
[2] = samples at 100, 1000 and 10000 nM, 37° C. 60 minutes, fluorescence Ex 390, Em 460, read-out: HDAC1 IC50

T2 sequence (Q13547 whole entry): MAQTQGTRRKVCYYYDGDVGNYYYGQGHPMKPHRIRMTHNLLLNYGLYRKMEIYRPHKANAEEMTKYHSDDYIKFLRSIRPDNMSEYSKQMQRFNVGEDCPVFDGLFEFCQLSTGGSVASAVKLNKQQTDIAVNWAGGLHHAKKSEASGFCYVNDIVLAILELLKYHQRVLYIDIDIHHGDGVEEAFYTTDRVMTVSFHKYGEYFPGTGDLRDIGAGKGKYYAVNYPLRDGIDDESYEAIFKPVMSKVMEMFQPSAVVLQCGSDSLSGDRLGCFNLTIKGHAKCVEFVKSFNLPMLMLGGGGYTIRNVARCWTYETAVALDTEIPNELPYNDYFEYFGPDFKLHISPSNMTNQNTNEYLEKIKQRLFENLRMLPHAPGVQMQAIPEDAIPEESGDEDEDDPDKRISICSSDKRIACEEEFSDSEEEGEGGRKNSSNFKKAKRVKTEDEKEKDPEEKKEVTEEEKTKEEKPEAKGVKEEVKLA

In the case of O=c1n(Cc2ccc(-c3nnc(C(F)F)o3)cn2)c2cc(F)ccc2n1C1CCN(C2CCOCC2)CC1 [Compound 55, 3-((5-(5-(difluoromethyl)-1,3,4-oxadiazole-2-yl)pyridine-2-yl)methyl)-5-fluoro-1-(1-(tetrahydro-2H-pyran-4-yl)piperidine-4-yl)-1,3-dihydro-2H-benzo[d]imidazole-2-one], the IC50 (HDAC6 human recombinant; [1]) is reported as 39 nM and the IC50 (HDAC1; [2]) is reported as over 10000 nM.
Molecule COCC(C)N1CCC(n2c(=O)n(Cc3ccc(-c4nnc(C(F)F)o4)cn3)c3cc(F)ccc32)CC1 (stereo not drawn) [Compound 56, 3-((5-(5-(difluoromethyl)-1,3,4-oxadiazole-2-yl)pyridine-2-yl)methyl)-5-fluoro-1-(1-(1-methoxypropane-2-yl)piperidine-4-yl)-1,3-dihydro-2H-benzo[d]imidazole-2-one] has an IC50 (HDAC6 human recombinant; [1]) of 34 nM and an IC50 (HDAC1; [2]) of over 10000 nM.
Work on O=c1n(Cc2ccc(-c3nnc(C(F)F)o3)cn2)c2cc(F)ccc2n1C1CCN(C2CCSCC2)CC1 [Compound 57, 3-((5-(5-(difluoromethyl)-1,3,4-oxadiazole-2-yl)pyridine-2-yl)methyl)-5-fluoro-1-(1-(tetrahydro-2H-thiopyran-4-yl)piperidine-4-yl)-1,3-dihydro-2H-benzo[d]imidazole-2-one] yielded an IC50 (HDAC6 human recombinant; [1]) of 36 nM and an IC50 (HDAC1; [2]) of over 10000 nM.
O=c1n(Cc2ccc(-c3nnc(C(F)F)o3)cn2)c2cc(F)ccc2n1C1CCN(C2CCC3(CC2)OCCO3)CC1 [Compound 58, 1-(1-(1,4-dioxaspiro[4.5]decane-8-yl)piperidine-4-yl)-3-((5-(5-(difluoromethyl)-1,3,4-oxadiazole-2-yl)pyridine-2-yl)methyl)-5-fluoro-1,3-dihydro-2H-benzo[d]imidazole-2-one] showed an IC50 (HDAC6 human recombinant; [1]) of 28 nM and an IC50 (HDAC1; [2]) of over 10000 nM.
Work on CC(=O)N1CCC(N2CCC(n3c(=O)n(Cc4ccc(-c5nnc(C(F)F)o5)cn4)c4cc(F)ccc43)CC2)CC1 [Compound 59, 1-(1′-acetyl-[1,4′-bipiperidine]-4-yl)-3-((5-(5-(difluoromethyl)-1,3,4-oxadiazole-2-yl)pyridine-2-yl)methyl)-5-fluoro-1,3-dihydro-2H-benzo[d]imidazole-2-one] yielded an IC50 (HDAC6 human recombinant) of 38 nM and an IC50 (HDAC1) of over 10000 nM.
With CC(=O)N1CCC(n2c(=O)n(Cc3ccc(-c4nnc(C(F)F)o4)cn3)c3cc(F)ccc32)CC1 [Compound 60, 1-(1-acetylpiperidine-4-yl)-3-((5-(5-(difluoromethyl)-1,3,4-oxadiazole-2-yl)pyridine-2-yl)methyl)-5-fluoro-1,3-dihydro-2H-benzo[d]imidazole-2-one] the IC50 (HDAC6 human recombinant; [1]) was 31 nM and the IC50 (HDAC1; [2]) was over 10000 nM.
For O=C(N1CCOCC1)N1CCC(n2c(=O)n(Cc3ccc(-c4nnc(C(F)F)o4)cn3)c3cc(F)ccc32)CC1 [Compound 61, 3-((5-(5-(difluoromethyl)-1,3,4-oxadiazole-2-yl)pyridine-2-yl)methyl)-5-fluoro-1-(1-(morpholine-4-carbonyl)piperidine-4-yl)-1,3-dihydro-2H-benzo[d]imidazole-2-one], the IC50 (HDAC6 human recombinant; [1]) was 32 nM and the IC50 (HDAC1; [2]) was over 10000 nM.
O=C(c1ccc(C(F)(F)F)cc1)N1CCC(n2c(=O)n(Cc3ccc(-c4nnc(C(F)F)o4)cn3)c3cc(F)ccc32)CC1 [Compound 62, 3-((5-(5-(difluoromethyl)-1,3,4-oxadiazole-2-yl)pyridine-2-yl)methyl)-5-fluoro-1-(1-(4-(trifluoromethyl)benzoyl)piperidine-4-yl)-1,3-dihydro-2H-benzo[d]imidazole-2-one] showed an IC50 (HDAC6 human recombinant; [1]) of 259 nM and an IC50 (HDAC1; [2]) of over 10000 nM.
In the case of O=C(c1ccncc1)N1CCC(n2c(=O)n(Cc3ccc(-c4nnc(C(F)F)o4)cn3)c3cc(F)ccc32)CC1 [Compound 63, 3-((5-(5-(difluoromethyl)-1,3,4-oxadiazole-2-yl)pyridine-2-yl)methyl)-5-fluoro-1-(1-isonicotinoylpiperidine-4-yl)-1,3-dihydro-2H-benzo[d]imidazole-2-one], the IC50 (HDAC6 human recombinant; [1]) is reported as 57 nM and the IC50 (HDAC1; [2]) is reported as over 10000 nM.
O=C(c1cncnc1)N1CCC(n2c(=O)n(Cc3ccc(-c4nnc(C(F)F)o4)cn3)c3cc(F)ccc32)CC1 [Compound 64, 3-((5-(5-(difluoromethyl)-1,3,4-oxadiazole-2-yl)pyridine-2-yl)methyl)-5-fluoro-1-(1-(pyrimidine-5-carbonyl)piperidine-4-yl)-1,3-dihydro-2H-benzo[d]imidazole-2-one] gave an IC50 (HDAC6 human recombinant; [1]) of 44 nM and an IC50 (HDAC1; [2]) of over 10000 nM.
Cc1oncc1C(=O)N1CCC(n2c(=O)n(Cc3ccc(-c4nnc(C(F)F)o4)cn3)c3cc(F)ccc32)CC1 [Compound 65, 3-((5-(5-(difluoromethyl)-1,3,4-oxadiazole-2-yl)pyridine-2-yl)methyl)-5-fluoro-1-(1-(5-methylisooxazole-4-carbonyl)piperidine-4-yl)-1,3-dihydro-2H-benzo[d]imidazole-2-one] was tested, and the IC50 (HDAC6 human recombinant; [1]) was 84 nM and the IC50 (HDAC1; [2]) was over 10000 nM.
Cc1ccc(C(=O)N2CCC(n3c(=O)n(Cc4ccc(-c5nnc(C(F)F)o5)cn4)c4cc(F)ccc43)CC2)o1 [Compound 66, 3-((5-(5-(difluoromethyl)-1,3,4-oxadiazole-2-yl)pyridine-2-yl)methyl)-5-fluoro-1-(1-(5-methylfuran-2-carbonyl)piperidine-4-yl)-1,3-dihydro-2H-benzo[d]imidazole-2-one] gave an IC50 (HDAC6 human recombinant; [1]) of 72 nM and an IC50 (HDAC1; [2]) of over 10000 nM.
In the case of COCCC(=O)N1CCC(n2c(=O)n(Cc3ccc(-c4nnc(C(F)F)o4)cn3)c3cc(F)ccc32)CC1 [Compound 67, 3-((5-(5-(difluoromethyl)-1,3,4-oxadiazole-2-yl)pyridine-2-yl)methyl)-5-fluoro-1-(1-(3-methoxypropanoyl)piperidine-4-yl)-1,3-dihydro-2H-benzo[d]imidazole-2-one], the IC50 (HDAC6 human recombinant; [1]) is reported as 41 nM and the IC50 (HDAC1; [2]) is reported as over 10000 nM.
Work on COC(=O)N1CCC(n2c(=O)n(Cc3ccc(-c4nnc(C(F)F)o4)cn3)c3cc(F)ccc32)CC1 [Compound 68, Methyl 4-(3-((5-(5-(difluoromethyl)-1,3,4-oxadiazole-2-yl)pyridine-2-yl)methyl)-5-fluoro-2-oxo-2,3-dihydro-1H-benzo[d]imidazole-1-yl)piperidine-1-carboxylate] yielded an IC50 (HDAC6 human recombinant; [1]) of 34 nM and an IC50 (HDAC1; [2]) of over 10000 nM.
With CN1CCC(n2c(=O)n(Cc3ccc(-c4nnc(C(F)F)o4)cc3F)c3cc(F)ccc32)CC1 [Compound 69, 3-(4-(5-(difluoromethyl)-1,3,4-oxadiazole-2-yl)-2-fluorobenzyl)-5-fluoro-1-(1-methylpiperidine-4-yl)-1,3-dihydro-2H-benzo[d]imidazole-2-one] the IC50 (HDAC6 human recombinant; [1]) was 28 nM and the IC50 (HDAC1; [2]) was over 10000 nM.
CC(C)N1CCC(n2c(=O)n(Cc3ccc(-c4nnc(C(F)F)o4)cc3F)c3cc(F)ccc32)CC1 [Compound 70, 3-(4-(5-(difluoromethyl)-1,3,4-oxadiazole-2-yl)-2-fluorobenzyl)-5-fluoro-1-(1-isopropylpiperidine-4-yl)-1,3-dihydro-2H-benzo[d]imidazole-2-one] gave an IC50 (HDAC6 human recombinant; [1]) of 31 nM and an IC50 (HDAC1; [2]) of over 10000 nM.
O=c1n(Cc2ccc(-c3nnc(C(F)F)o3)cc2F)c2cc(F)ccc2n1C1CCN(C2COC2)CC1 [Compound 71, 3-(4-(5-(difluoromethyl)-1,3,4-oxadiazole-2-yl)-2-fluorobenzyl)-5-fluoro-1-(1-(oxetan-3-yl)piperidine-4-yl)-1,3-dihydro-2H-benzo[d]imidazole-2-one] was tested, and the IC50 (HDAC6 human recombinant; [1]) was 19 nM and the IC50 (HDAC1; [2]) was over 10000 nM.
In the case of O=c1n(Cc2ccc(-c3nnc(C(F)F)o3)cc2F)c2cc(F)ccc2n1C1CCN(C2CCOCC2)CC1 [Compound 72, 3-(4-(5-(difluoromethyl)-1,3,4-oxadiazole-2-yl)-2-fluorobenzyl)-5-fluoro-1-(1-(tetrahydro-2H-pyran-4-yl)piperidine-4-yl)-1,3-dihydro-2H-benzo[d]imidazole-2-one], the IC50 (HDAC6 human recombinant; [1]) is reported as 26 nM and the IC50 (HDAC1; [2]) is reported as over 10000 nM.
